In publication PMC4508201 (Organic & biomolecular chemistry, 2015):
Read-outs that look alike come from different tables or passages of the source.

Assays:
recombinant human S1PR2 = recombinant human S1PR2 (Homo sapiens, UniProt O95136); experiment: [32P]S1P competitive cell membrane binding assay, S1PR2
S1PR1 = S1PR1 (Homo sapiens, UniProt P21453); experiment: [32P]S1P competitive cell membrane binding assay, S1PR1
S1PR3 = S1PR3 (Homo sapiens, UniProt Q99500); experiment: [32P]S1P competitive cell membrane binding assay, S1PR3
[1] = IC50 S1PR2, competition against [32P]S1P, CHO cell membrane

Chain of S1PR1 (P21453 whole entry, species assumed): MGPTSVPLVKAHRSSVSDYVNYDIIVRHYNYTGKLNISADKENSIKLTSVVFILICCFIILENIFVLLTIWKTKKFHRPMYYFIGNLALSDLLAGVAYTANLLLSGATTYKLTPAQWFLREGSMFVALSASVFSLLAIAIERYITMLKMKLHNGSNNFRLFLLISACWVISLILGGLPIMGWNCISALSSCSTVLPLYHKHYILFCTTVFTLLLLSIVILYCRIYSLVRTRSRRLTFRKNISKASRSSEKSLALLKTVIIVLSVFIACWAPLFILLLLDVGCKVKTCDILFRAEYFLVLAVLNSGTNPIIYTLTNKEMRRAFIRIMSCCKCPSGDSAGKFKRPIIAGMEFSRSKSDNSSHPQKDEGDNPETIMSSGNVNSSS
Chain of S1PR3 (Q99500 whole entry, species assumed): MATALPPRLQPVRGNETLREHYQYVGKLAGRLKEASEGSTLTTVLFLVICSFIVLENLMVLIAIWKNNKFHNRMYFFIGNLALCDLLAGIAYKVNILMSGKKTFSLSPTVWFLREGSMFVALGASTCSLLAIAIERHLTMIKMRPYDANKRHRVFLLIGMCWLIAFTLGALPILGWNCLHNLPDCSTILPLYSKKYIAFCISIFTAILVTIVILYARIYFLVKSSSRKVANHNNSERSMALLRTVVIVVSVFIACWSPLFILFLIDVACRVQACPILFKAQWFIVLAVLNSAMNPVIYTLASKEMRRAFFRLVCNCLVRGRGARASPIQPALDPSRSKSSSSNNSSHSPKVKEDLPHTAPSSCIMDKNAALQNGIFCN
Chain of recombinant human S1PR2 (O95136 whole entry): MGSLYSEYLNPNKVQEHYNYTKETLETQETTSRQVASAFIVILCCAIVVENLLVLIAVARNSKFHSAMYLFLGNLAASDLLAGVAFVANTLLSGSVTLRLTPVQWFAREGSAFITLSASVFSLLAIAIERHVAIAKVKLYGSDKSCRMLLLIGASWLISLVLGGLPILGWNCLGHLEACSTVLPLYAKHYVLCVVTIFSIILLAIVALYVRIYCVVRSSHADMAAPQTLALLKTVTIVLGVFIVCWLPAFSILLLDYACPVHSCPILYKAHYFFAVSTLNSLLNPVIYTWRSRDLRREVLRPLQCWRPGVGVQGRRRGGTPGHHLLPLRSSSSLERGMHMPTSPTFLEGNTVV

| SMILES | IC50 (recombinant human S1PR2; [1]) [µM] | Binding potency for S1PR2 relative to JTE-013 (recombinant human S1PR2; ratio of IC50 values) | IC50 (S1PR1) [µM] | IC50 (S1PR3) [µM] | IC50 S1PR2 (recombinant human S1PR2; competition against [32P]S1P, CHO cell membrane) | IC50 (recombinant human S1PR2; read-out: IC50 S1PR2, competition against [32P]S1P, CHO cell membrane) [µM] | IC50 (S1PR1; read-out: IC50 S1PR1, competition against [32P]S1P) [µM] | IC50 (S1PR3; read-out: IC50 S1PR3, competition against [32P]S1P) [µM] |
| --- | --- | --- | --- | --- | --- | --- | --- | --- |
| COc1cc(NC(=O)NNc2cc(C(C)C)c3c(C)nn(C)c3n2)cc(Cl)n1 [Compound 5a, N-(2-Chloro-6-methoxypyridin-4-yl)-2-(4-isopropyl-1,3-dimethyl-1H-pyrazolo[3,4-b]pyridin-6-yl)hydrazine-1-carboxamide] | 0.00952 ± 0.0007 | seven-fold more potent | > 1 | > 1 |  |  |  |  |
| Cc1nn(C)c2nc(NNC(=O)Nc3cc(F)nc(Cl)c3)cc(C(C)C)c12 [Compound 5b, N-(2-Chloro-6-fluoropyridin-4-yl)-2-(4-isopropyl-1,3-dimethyl-1H-pyrazolo[3,4-b]pyridin-6-yl)hydrazine-1-carboxamide] | 0.135 |  | > 1 | > 1 |  |  |  |  |
| COCCOc1cc(NC(=O)NNc2cc(C(C)C)c3c(C)nn(C)c3n2)cc(Cl)n1 [Compound 5c, N-(2-Chloro-6-(2-methoxyethoxy)pyridin-4-yl)-2-(4-isopropyl-1,3-dimethyl-1H-pyrazolo[3,4-b]pyridin-6-yl)hydrazine-1-carboxamide] | 0.234 |  | > 1 | > 1 |  |  |  |  |
| COCn1c(Cl)cc(NC(=O)NNc2cc(C(C)C)c3c(C)nn(C)c3n2)cc1=O [Compound 5d, N-(6-Chloro-1-(methoxymethyl)-2-oxo-1,2-dihydropyridin-4-yl)-2-(4-isopropyl-1,3-dimethyl-1H-pyrazolo[3,4-b]pyridin-6-yl)hydrazine-1-carboxamide] | > 1 |  | > 1 | > 1 | No binding potency |  |  |  |
| COCOc1cc(NC(=O)NNc2cc(C(C)C)c3c(C)nn(C)c3n2)cc(Cl)n1 [Compound 5e, N-(2-Chloro-6-(methoxymethoxy)pyridin-4-yl)-2-(4-isopropyl-1,3-dimethyl-1H-pyrazolo[3,4-b]pyridin-6-yl)hydrazine-1-carboxamide] | 0.00809 ± 0.00091 |  | > 1 | > 1 |  |  |  |  |
| Cc1nn(C)c2nc(NNC(=O)Nc3cc(Cl)nc(OCCF)c3)cc(C(C)C)c12 [Compound 5f, N-(2-Chloro-6-(2-fluoroethoxy)pyridin-4-yl)-2-(4-isopropyl-1,3-dimethyl-1H-pyrazolo[3,4-b]pyridin-6-yl)hydrazine-1-carboxamide] | 0.00812 ± 0.00062 |  | > 1 | > 1 |  |  |  |  |
| Cc1nn(C)c2nc(NNC(=O)Nc3cc(Cl)nc(Cl)c3)cc(C(C)C)c12 [JTE-013, reference compound] |  |  |  |  |  | 0.0685 ± 0.00745 | > 1 | > 1 |
